Measurements: patent US20230250084A1, “PYRAZOLYL PYRIMIDINONE COMPOUNDS AND THE USES THEREOF” (Purdue Research Foundation, priority 2019, published 2023)

Experiments:
AC1 = AC1 (Homo sapiens, UniProt Q08828); assay: Adenylyl cyclase cAMP accumulation assay, HEK-ACA3/6 cells overexpressing human AC1; assay type: cell-based; design: expressed in transfected cells; host or cells: HEK-ACA3/6 cells (so in the source) overexpressing human AC1; conditions: Table 2; 3 μM A23187 + 0.5 mM IBMX, HTRF cAMP; read-out: AC1 IC50 (μM) ± SEM
Protocol: Cryopreserved HEK-ACA3/6 cells overexpressing human AC1, AC2, AC5, or AC8 were transferred to a 15 mL Falcon tube and gently resuspended in prewarmed Opti-MEM.50 The cells were centrifuged for 5 min at 150 g, the supernatant was discarded, and the cell pellet was resuspended in 10 mL for a second centrifugation step. Then, the cells were counted, plated in a white opaque 384-well plate, and incubated for 1 h in a 37° C. incubator supplemented with 5% CO2. The hit compounds' working solutions were prepared in prewarmed Opti-MEM, and successive serial dilutions were prepared using a Precision 2000 automated pipetting system. Dose*-response curves were generated for each hit compound using a threefold serial dilution starting at 30 μM concentration (at least 6-points per curve). Compounds were added to the assay plates and incubated for 30 min at room temperature. AC activity was selectively stimulated on each AC isoform with 3 μM A23187 (AC1 and AC8), 100 nM PMA (AC2), or a low concentration (1 μM) of the AC activator, forskolin (AC5). All stimulants of AC activity were added in combination with IBMX at a final concentration of 0.5 mM. After 1 h incubation with the stimulant at room temperature, cAMP accumulation was detected using the fluorescence-based Cisbio HTRF cAMP detection kit. […] Percent inhibition at the highest concentration was used to determine max % inhibition (Max AC8% Inhibition). […]

AC8 = AC8 (Homo sapiens, UniProt P40145); assay: Adenylyl cyclase cAMP accumulation assay, HEK-ACA3/6 cells overexpressing human AC8; assay type: cell-based; design: expressed in transfected cells; host or cells: HEK-ACA3/6 cells (so in the source) overexpressing human AC8; conditions: Table 2; for IC50: 3 μM A23187 + 0.5 mM IBMX, HTRF cAMP, read-out: AC8 IC50 (μM) ± SEM; for inhibition at up to 30 µM: percent inhibition at the highest concentration (dilution starting at 30 μM), read-out: Max AC8 % inhibition
Protocol: Cryopreserved HEK-ACA3/6 cells overexpressing human AC1, AC2, AC5, or AC8 were transferred to a 15 mL Falcon tube and gently resuspended in prewarmed Opti-MEM.50 The cells were centrifuged for 5 min at 150 g, the supernatant was discarded, and the cell pellet was resuspended in 10 mL for a second centrifugation step. Then, the cells were counted, plated in a white opaque 384-well plate, and incubated for 1 h in a 37° C. incubator supplemented with 5% CO2. The hit compounds' working solutions were prepared in prewarmed Opti-MEM, and successive serial dilutions were prepared using a Precision 2000 automated pipetting system. Dose*-response curves were generated for each hit compound using a threefold serial dilution starting at 30 μM concentration (at least 6-points per curve). Compounds were added to the assay plates and incubated for 30 min at room temperature. AC activity was selectively stimulated on each AC isoform with 3 μM A23187 (AC1 and AC8), 100 nM PMA (AC2), or a low concentration (1 μM) of the AC activator, forskolin (AC5). All stimulants of AC activity were added in combination with IBMX at a final concentration of 0.5 mM. After 1 h incubation with the stimulant at room temperature, cAMP accumulation was detected using the fluorescence-based Cisbio HTRF cAMP detection kit. […] Percent inhibition at the highest concentration was used to determine max % inhibition (Max AC8% Inhibition).
The Max AC8 inhibition is a description of the maximum efficacy of molecules against AC8.

Sequence of AC1 (Q08828 whole entry): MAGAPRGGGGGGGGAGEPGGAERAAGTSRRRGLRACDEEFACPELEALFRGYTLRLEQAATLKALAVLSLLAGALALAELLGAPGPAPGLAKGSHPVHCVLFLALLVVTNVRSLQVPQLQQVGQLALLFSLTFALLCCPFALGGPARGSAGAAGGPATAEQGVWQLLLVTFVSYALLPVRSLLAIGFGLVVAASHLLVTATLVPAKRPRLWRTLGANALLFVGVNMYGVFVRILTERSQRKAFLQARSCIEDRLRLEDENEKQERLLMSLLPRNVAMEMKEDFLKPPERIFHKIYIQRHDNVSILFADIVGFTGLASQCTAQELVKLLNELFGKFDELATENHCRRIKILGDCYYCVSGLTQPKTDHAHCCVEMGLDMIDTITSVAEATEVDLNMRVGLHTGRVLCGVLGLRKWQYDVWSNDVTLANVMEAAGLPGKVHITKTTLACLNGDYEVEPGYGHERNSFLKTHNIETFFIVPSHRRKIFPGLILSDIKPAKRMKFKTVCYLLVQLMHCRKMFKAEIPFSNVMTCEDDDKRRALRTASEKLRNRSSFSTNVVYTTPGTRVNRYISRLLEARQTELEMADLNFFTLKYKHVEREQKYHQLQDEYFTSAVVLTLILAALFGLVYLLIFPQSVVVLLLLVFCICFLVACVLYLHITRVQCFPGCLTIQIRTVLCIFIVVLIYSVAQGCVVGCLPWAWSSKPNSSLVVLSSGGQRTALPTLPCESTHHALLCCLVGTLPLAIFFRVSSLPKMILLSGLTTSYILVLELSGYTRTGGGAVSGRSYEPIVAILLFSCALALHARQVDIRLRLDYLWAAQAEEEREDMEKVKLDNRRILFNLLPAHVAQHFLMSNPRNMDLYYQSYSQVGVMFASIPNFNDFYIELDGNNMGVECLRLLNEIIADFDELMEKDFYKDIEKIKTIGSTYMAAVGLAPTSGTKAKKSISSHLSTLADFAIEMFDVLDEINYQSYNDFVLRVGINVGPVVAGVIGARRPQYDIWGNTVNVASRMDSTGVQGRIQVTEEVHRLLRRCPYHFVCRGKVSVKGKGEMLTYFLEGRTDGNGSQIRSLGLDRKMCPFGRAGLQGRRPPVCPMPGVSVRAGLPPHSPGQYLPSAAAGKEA
Sequence of AC8 (P40145 whole entry): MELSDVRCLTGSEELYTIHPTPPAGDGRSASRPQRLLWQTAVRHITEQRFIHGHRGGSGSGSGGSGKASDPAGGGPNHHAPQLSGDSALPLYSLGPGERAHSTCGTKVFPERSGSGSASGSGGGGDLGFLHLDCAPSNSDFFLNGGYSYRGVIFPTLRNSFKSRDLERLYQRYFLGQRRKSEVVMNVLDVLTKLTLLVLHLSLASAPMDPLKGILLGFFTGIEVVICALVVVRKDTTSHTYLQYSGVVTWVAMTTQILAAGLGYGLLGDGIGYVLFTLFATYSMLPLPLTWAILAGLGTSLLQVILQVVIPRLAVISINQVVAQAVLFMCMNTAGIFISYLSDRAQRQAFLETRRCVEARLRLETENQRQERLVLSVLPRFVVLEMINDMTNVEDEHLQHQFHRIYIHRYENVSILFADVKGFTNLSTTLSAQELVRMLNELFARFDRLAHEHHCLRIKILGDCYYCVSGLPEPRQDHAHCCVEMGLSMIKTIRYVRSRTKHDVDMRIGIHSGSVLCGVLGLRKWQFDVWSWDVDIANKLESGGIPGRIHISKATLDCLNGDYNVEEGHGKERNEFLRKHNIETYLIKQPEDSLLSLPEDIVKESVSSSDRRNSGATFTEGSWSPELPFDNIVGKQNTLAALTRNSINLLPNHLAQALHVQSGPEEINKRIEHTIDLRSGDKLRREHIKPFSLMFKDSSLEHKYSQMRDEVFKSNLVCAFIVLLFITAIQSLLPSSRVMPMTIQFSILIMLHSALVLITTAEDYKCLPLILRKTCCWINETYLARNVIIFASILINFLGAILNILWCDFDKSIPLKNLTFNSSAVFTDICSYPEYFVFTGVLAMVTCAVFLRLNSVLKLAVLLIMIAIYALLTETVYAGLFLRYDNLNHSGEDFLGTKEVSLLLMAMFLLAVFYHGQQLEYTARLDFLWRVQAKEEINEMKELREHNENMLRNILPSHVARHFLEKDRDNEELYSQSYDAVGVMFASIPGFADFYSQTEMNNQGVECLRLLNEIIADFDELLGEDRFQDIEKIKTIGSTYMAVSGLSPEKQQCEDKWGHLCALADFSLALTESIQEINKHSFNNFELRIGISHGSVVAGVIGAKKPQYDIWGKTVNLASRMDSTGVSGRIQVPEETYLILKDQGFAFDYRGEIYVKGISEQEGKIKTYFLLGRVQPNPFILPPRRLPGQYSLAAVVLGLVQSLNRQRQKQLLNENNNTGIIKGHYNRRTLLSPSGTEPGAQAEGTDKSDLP

Row | SMILES | IC50 (AC1) | IC50 (AC8) | inhibition at up to 30 µM (AC8)
1 | Cc1cc(NCc2ccc(Cl)cc2)n(-c2ccccc2)n1 [AC10113A] | 15.5 ± 8.63 µM | > 60 µM | 19%
2 | Cc1cccc(CNc2cc(C)nn2-c2nc3c(c(=O)[nH]2)CCC3)c1 [AC10115A] | 0.75 ± 0.39 µM | 10.8 ± 4.61 µM | 82%
3 | Cc1cccc(CNc2cc(C)nn2-c2nc(C)cc(=O)[nH]2)c1 [AC10114A] | 0.63 ± 0.22 µM | > 60 µM | 33%
4 | Cc1cc(=O)[nH]c(-n2nc(C)cc2NCc2ccc(Cl)cc2)n1 [AC10111A] | 0.36 ± 0.12 µM | 31.8 ± 19.3 µM | 35%
5 | CCc1cc(=O)[nH]c(-n2nc(C)cc2NCc2ccc(C(=O)c3ccccc3)cc2)n1 [AC10144A] | 0.26 ± 0.03 µM | 2.01 ± 0.09 µM | 84%
6 | Cc1cc(NCc2ccc(Cl)cc2)n(-c2nc3c(c(=O)[nH]2)CCC3)n1 [AC10110A] | 7.49 ± 2.9 µM | 58.9 ± 36.1 µM | 48%
7 | CCc1cc(=O)[nH]c(-n2nc(C)cc2NCc2ccco2)n1 [AC10139A] | 1.07 ± 0.07 µM | > 60 µM | 23%
8 | Cc1cccc(CNc2cc(C)nn2-c2nccc(=O)[nH]2)c1 [AC10116A] | 2.63 ± 0.51 µM | 8.23 ± 4.05 µM | 83%
9 | CCc1cc(=O)[nH]c(-n2nc(C)cc2NCc2cccs2)n1 [AC10140A] | 0.39 ± 0.02 µM | > 60 µM | 4%
10 | CCc1cc(=O)[nH]c(-n2nc(-c3ccccc3)cc2NCc2ccc(OC)cc2)n1 [AC10112A] | 0.86 ± 0.07 µM | 45.3 ± 14.1 µM | 37%
